The results in this text go back to US20130266535A1, “METHYL SALICYLATE-BASED ATTRACTANTS FOR VECTORS OF CITRUS GREENING DISEASE” (priority 2012, published 2013).

Structures are written as SMILES.

The test system of the experiment is Diaphorina citri. Put plainly: Two-port T-olfactometer behavioral bioassay with synthetic chemicals vs. clean air (solvent-only wick). It counts as in vivo. The settings on record: for Proportion of D. citri responding to treatment arm: non-infected female adults, treatment vs solvent control arm. The text has this: A custom designed two-port divided T-olfactometer [Analytical Research Systems (ARS), Inc. Gainesville, Fla.] that has been thoroughly described in [98] was used to evaluate behavioral response of D. citri. Briefly, the olfactometer consisted of a 30 cm long glass tube with 3.5 cm internal diameter that is bifurcated into two equal halves with a Teflon strip forming a T-maze. Each half served as an arm of the olfactometer enabling the D. citri to make a choice between two potential odor fields. The olfactometer arms were connected to odor sources placed in 35 cm tall×15 cm wide dome shaped guillotine volatile collection chambers (GVCC) (ARS, Gainesville, Fla.) through Teflon-glass tube connectors. The odor sources comprised 14-16 week old Las-infected or non-infected C. sinensis plants placed in GVCC. Purified and humidified air was pushed through the GVCC via two pumps connected to an air delivery system (ARS, Gainesville, Fla.). A constant airflow of 0.1 L/min was maintained through both arms of the olfactometer. The olfactometer was housed within a temperature-controlled room and positioned vertically under a fluorescent 900-lux light bulb within a fiberboard box for uniform light diffusion. This positioning took advantage of the negative geotactic and positive phototactic response of D. citri.
D. citri adults were released individually into the inlet adapter at the base of the olfactometer. An odor source was randomly assigned to one of the arms of the olfactometer at the beginning of each bioassay and was reversed after every 30 insects to eliminate positional bias. Initially, D. citri adults were exposed to clean air vs. clean air in the olfactometer to verify the absence of positional bias. Thereafter, the behavioral response of non-infected or Las-infected D. citri was tested against non-infected versus Las-infected plants. D. citri adults were also exposed to non-infected grafted (sham grafted) vs. non-grafted-non-infected plants to determine the effects of grafting only on D. citri behavior. For each treatment, C. sinensis plants were grafted with C. aurantifolia budwood four months prior to initiating behavioral experiments. A minimum of 150 male or female D. citri adults were examined per treatment combination (five replications of 30 D. citri). Each D. citri that responded to odors was individually subjected to qPCR to determine Las infection status using the procedures described above.
MeSA was released in greater quantities from Las-infected plants than non-infected plants, while MeAN and D-limonene were released in greater quantities by non-infected than infected plants (See results). Therefore, the behavioral response of D. citri to these synthetic chemicals was tested. A known D. citri attractant, β-ocimene, was used as a positive control. All chemicals were obtained from Sigma Aldrich (St Louis, Mo.) with purities ranging between 97 and 99%. Purity of β-ocimene was 90% and contained a mixture of isomers comprising 20-25% limonene. Each treatment was dissolved in 100 μl of dichloromethane and pipetted onto a 2 cm Richmond cotton wick (Petty John Packaging, Inc. Concord, N.C.) at 0.001, 0.01, 0.1, 1.0, 10.0 and 100.0 μg dosages. The control treatment consisted of a cotton wick impregnated with solvent only. The solvent from both treatments was allowed to evaporate within a fume hood for 30 min prior to assays. The bioassay procedures with synthetic chemicals were identical to those described earlier for plant samples. However, in this case, treatments (odor sources) were placed into solid phase micro extraction chambers (SPMEC) (ARS, Gainesville, Fla.) instead of the GVCC described above. The SPMEC consists of a straight glass tube (17.5 cm long×2.5 cm internal diameter) supported with an inlet and outlet valve for incoming and outgoing air streams, respectively. […]

Turning to `COC(=O)c1ccccc1N` [Methyl anthranilate, methyl anthranilate], under “any of the dosages tested (0.001-100 μg)”, the “Behavioral response of D. citri (attraction/repulsion)” value is “did not attract or repel”. Further, the “Proportion of D. citri responding to treatment arm” value (shortened to “Proportion of D. citri responding”) reads like this: (dosage 0.001 μg on cotton wick) 58.06; (dosage 0.01 μg on cotton wick) 57.14; (dosage 0.1 μg on cotton wick) 61.76; (dosage 1.0 μg on cotton wick) 57.33; (dosage 10.0 μg on cotton wick) 56.10; (dosage 100.0 μg on cotton wick) 52.27.
In the case of `COC(=O)c1ccccc1O` [Methyl salicylate, methyl salicylate], the “Behavioral response of D. citri (attraction/repulsion)” value runs as follows: (0.001 μg dosage) “attracted”; (100 μg dosage) “repelled”. For the same compound, the “Proportion of D. citri responding” value was determined as 54.00 (dosage 0.001 μg on cotton wick); 60.44 (dosage 0.01 μg on cotton wick); 54.76 (dosage 0.1 μg on cotton wick); 45.12 (dosage 1.0 μg on cotton wick); 41.03 (dosage 10.0 μg on cotton wick); 39.56 (dosage 100.0 μg on cotton wick).
Regarding `C=C(C)[C@H]1CC=C(C)CC1` [D-limonene], the “Behavioral response of D. citri (attraction/repulsion)” value (100 μg dosage) is listed as “attracted”. For the same compound, the “Proportion of D. citri responding” value is 56.06 (dosage 0.001 μg on cotton wick); 60.87 (dosage 0.01 μg on cotton wick); 54.39 (dosage 0.1 μg on cotton wick); 54.65 (dosage 1.0 μg on cotton wick); 60.24 (dosage 10.0 μg on cotton wick); 61.54 (dosage 100.0 μg on cotton wick).
For the compound `C=CC(C)=CCC=C(C)C` [β-ocimene, reference compound], under “1-100 μg dosages”, the “Behavioral response of D. citri (attraction/repulsion)” value is “attractive”. Further, the “Proportion of D. citri responding” value reads like this: (dosage 0.001 μg on cotton wick) 52.22; (dosage 0.01 μg on cotton wick) 54.46; (dosage 0.1 μg on cotton wick) 53.19; (dosage 1.0 μg on cotton wick) 60.44; (dosage 10.0 μg on cotton wick) 61.46; (dosage 100.0 μg on cotton wick) 62.77.
